The supplement of paper PMC6045584
± gives the standard deviation of the averaged measurements.

What was measured:
[1] = compound: COc1ccc(-c2cc3c(C)nc(N)nc3n([C@H]3CC[C@H](OCCO)CC3)c2=O)cn1; test: surviving fraction relative to DMSO-only wells; higher = less growth inhibition; conditions: exposure time: 5 days
Procedure, shortened: (§1)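 Surviving fraction was calculated by normalising CellTiter-Glo luminescence to the median of DMSO-only wells. Tumour cell lines in log phase were seeded in 384-well plates at 250–500 cells per well, and 24 hours later were exposed continuously for five days to inhibitors at 0.5, 1, 5, 10, 50, 100, 500 and 1000 nM.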

[2] = compound: Cn1ncnc1[C@H]1c2n[nH]c(=O)c3cc(F)cc(c23)N[C@@H]1c1ccc(F)cc1 [BMN-673]; test: as above; conditions: exposure time: 5 days
Procedure, shortened: as §1

Row | Test System | surviving fraction ([1]; 0.5 nM) | surviving fraction ([1]; 1 nM) | surviving fraction ([1]; 5 nM) | surviving fraction ([1]; 10 nM) | surviving fraction ([1]; 50 nM) | surviving fraction ([1]; 100 nM) | surviving fraction ([1]; 500 nM) | surviving fraction ([1]; 1000 nM) | surviving fraction ([2]; 0.5 nM) | surviving fraction ([2]; 1 nM) | surviving fraction ([2]; 5 nM) | surviving fraction ([2]; 10 nM) | surviving fraction ([2]; 50 nM) | surviving fraction ([2]; 100 nM) | surviving fraction ([2]; 500 nM) | surviving fraction ([2]; 1000 nM)
1 | 22RV1 PROSTATE | 1.03 ± 0.041 | 0.999 ± 0.072 | 0.876 ± 0.085 | 0.796 ± 0.021 | 0.516 ± 0.065 | 0.312 ± 0.043 | 0.106 ± 0.019 | 0.0857 ± 0.0063 | 1.06 ± 0.073 | 1.01 ± 0.11 | 0.871 ± 0.14 | 0.776 ± 0.18 | 0.657 ± 0.09 | 0.64 ± 0.037 | 0.468 ± 0.061 | 0.324 ± 0.048
2 | 93VU HEADNECK | 0.94 ± 0.015 | 0.995 ± 0.14 | 0.923 ± 0.075 | 0.979 ± 0.044 | 0.582 ± 0.14 | 0.351 ± 0.068 | 0.0697 ± 0.0051 | 0.047 ± 0.0046 | 1.07 ± 0.071 | 1.14 ± 0.11 | 1.07 ± 0.14 | 0.983 ± 0.056 | 0.98 ± 0.084 | 0.925 ± 0.018 | 0.806 ± 0.087 | 0.632 ± 0.053
3 | 143B BONE | 0.995 ± 0.0057 | 0.992 ± 0.014 | 1.01 ± 0.039 | 0.966 ± 0.025 | 0.946 ± 0.011 | 0.896 ± 0.02 | 0.391 ± 0.016 | 0.267 ± 0.013 | 1.08 ± 0.047 | 1.11 ± 0.086 | 1.1 ± 0.054 | 1.09 ± 0.073 | 1.11 ± 0.16 | 1.05 ± 0.064 | 0.733 ± 0.06 | 0.528 ± 0.052
4 | A549 LUNG | 0.958 ± 0.049 | 0.939 ± 0.044 | 0.927 ± 0.026 | 0.936 ± 0.035 | 1.02 ± 0.032 | 0.886 ± 0.016 | 0.325 ± 0.024 | 0.158 ± 0.0036 | 1.08 ± 0.026 | 1.1 ± 0.014 | 1.08 ± 0.033 | 1.07 ± 0.028 | 1.13 ± 0.08 | 1.1 ± 0.025 | 1.05 ± 0.043 | 0.972 ± 0.048
5 | ASKA SYNOVIAL | 0.923 ± 0.037 | 0.896 ± 0.064 | 0.878 ± 0.076 | 0.776 ± 0.054 | 0.462 ± 0.019 | 0.366 ± 0.025 | 0.187 ± 0.011 | 0.229 ± 0.026 | 0.846 ± 0.056 | 0.753 ± 0.041 | 0.625 ± 0.043 | 0.602 ± 0.024 | 0.54 ± 0.062 | 0.427 ± 0.036 | 0.342 ± 0.015 | 0.334 ± 0.016
6 | BT20 BREAST | 1.13 ± 0.1 | 1.11 ± 0.097 | 1.12 ± 0.019 | 1.09 ± 0.063 | 1 ± 0.048 | 0.72 ± 0.037 | 0.216 ± 0.004 | 0.141 ± 0.021 | 1.22 ± 0.014 | 1.15 ± 0.11 | 1.04 ± 0.034 | 0.971 ± 0.052 | 0.88 ± 0.035 | 0.797 ± 0.074 | 0.673 ± 0.13 | 0.474 ± 0.08
7 | BT549 BREAST | 1.09 ± 0.18 | 1.02 ± 0.12 | 0.952 ± 0.095 | 0.939 ± 0.14 | 0.569 ± 0.085 | 0.381 ± 0.035 | 0.12 ± 0.013 | 0.0733 ± 0.0021 | 1.07 ± 0.05 | 1.03 ± 0.019 | 1.03 ± 0.11 | 0.797 ± 0.044 | 0.755 ± 0.051 | 0.652 ± 0.079 | 0.438 ± 0.04 | 0.323 ± 0.019
8 | C33A CERVIX | 0.778 ± 0.031 | 0.943 ± 0.09 | 0.789 ± 0.075 | 0.923 ± 0.073 | 0.614 ± 0.043 | 0.482 ± 0.012 | 0.156 ± 0.024 | 0.101 ± 0.018 | 0.995 ± 0.028 | 0.968 ± 0.019 | 0.744 ± 0.079 | 0.655 ± 0.046 | 0.422 ± 0.035 | 0.332 ± 0.051 | 0.19 ± 0.015 | 0.172 ± 0.023
9 | CADOES1 SOFT TISSUE | 0.956 ± 0.11 | 0.921 ± 0.061 | 0.911 ± 0.058 | 0.781 ± 0.045 | 0.633 ± 0.11 | 0.49 ± 0.025 | 0.193 ± 0.033 | 0.12 ± 0.0096 | 0.979 ± 0.076 | 0.942 ± 0.05 | 0.745 ± 0.18 | 0.653 ± 0.094 | 0.378 ± 0.054 | 0.29 ± 0.027 | 0.135 ± 0.033 | 0.073 ± 0.013
10 | CAL51 BREAST | 0.988 ± 0.062 | 0.901 ± 0.047 | 0.943 ± 0.064 | 0.91 ± 0.053 | 0.731 ± 0.023 | 0.442 ± 0.035 | 0.123 ± 0.0027 | 0.0447 ± 0.0022 | 0.941 ± 0.037 | 0.807 ± 0.065 | 0.548 ± 0.014 | 0.389 ± 0.021 | 0.219 ± 0.026 | 0.146 ± 0.027 | 0.0603 ± 0.01 | 0.0523 ± 0.0019
11 | CAL72 BONE | 1.09 ± 0.055 | 1.06 ± 0.043 | 1.04 ± 0.043 | 1.05 ± 0.027 | 0.993 ± 0.038 | 0.805 ± 0.045 | 0.235 ± 0.014 | 0.214 ± 0.031 | 1.08 ± 0.13 | 1.07 ± 0.027 | 1.07 ± 0.018 | 1.09 ± 0.09 | 1.07 ± 0.082 | 0.973 ± 0.22 | 0.776 ± 0.19 | 0.509 ± 0.21
12 | CAL120 BREAST | 0.942 ± 0.024 | 0.876 ± 0.034 | 0.9035 ± 0.0069 | 0.867 ± 0.025 | 0.674 ± 0.035 | 0.441 ± 0.019 | 0.113 ± 0.025 | 0.0817 ± 0.0065 | 0.968 ± 0.033 | 0.915 ± 0.067 | 0.798 ± 0.05 | 0.676 ± 0.035 | 0.591 ± 0.014 | 0.506 ± 0.062 | 0.43 ± 0.021 | 0.425 ± 0.035
13 | CASKI CERVIX | 0.91 ± 0.034 | 0.901 ± 0.034 | 0.779 ± 0.05 | 0.922 ± 0.031 | 0.426 ± 0.022 | 0.147 ± 0.009 | 0.0347 ± 0.0047 | 0.338 ± 0.52 | 0.942 ± 0.03 | 0.888 ± 0.063 | 0.9 ± 0.036 | 0.88 ± 0.06 | 0.858 ± 0.054 | 0.821 ± 0.068 | 0.594 ± 0.0084 | 0.502 ± 0.02
14 | CHLA90 AUTONOMIC GANGLIA | 1.05 ± 0.018 | 1 ± 0.061 | 0.951 ± 0.077 | 0.86 ± 0.04 | 0.753 ± 0.015 | 0.586 ± 0.045 | 0.206 ± 0.014 | 0.102 ± 0.0045 | 0.939 ± 0.01 | 0.982 ± 0.068 | 0.906 ± 0.051 | 0.897 ± 0.045 | 0.938 ± 0.086 | 0.906 ± 0.083 | 0.814 ± 0.04 | 0.714 ± 0.026
15 | CME SYNOVIAL | 1.01 ± 0.027 | 1.09 ± 0.2 | 1.04 ± 0.042 | 1.12 ± 0.045 | 0.743 ± 0.083 | 0.681 ± 0.051 | 0.252 ± 0.022 | 0.28 ± 0.019 | 0.831 ± 0.068 | 0.528 ± 0.039 | 0.234 ± 0.018 | 0.211 ± 0.035 | 0.243 ± 0.024 | 0.211 ± 0.012 | 0.201 ± 0.0059 | 0.285 ± 0.0076
16 | COLO320DM LARGE INTESTINE | 1.07 ± 0.051 | 1.08 ± 0.08 | 0.994 ± 0.05 | 0.906 ± 0.029 | 0.5533 ± 0.0034 | 0.383 ± 0.037 | 0.215 ± 0.0076 | 0.18 ± 0.0044 | 1.16 ± 0.049 | 1.1 ± 0.11 | 1.01 ± 0.038 | 0.951 ± 0.04 | 0.781 ± 0.061 | 0.704 ± 0.059 | 0.606 ± 0.0097 | 0.5533 ± 0.0029
